For one test, the target named is T1, FMS kinase (Homo sapiens, UniProt P07333).
T1 construct: purchased Invitrogen or Millipore
The experiment in a line: FMS Kinase Assay. In kind it is biochemical. Particulars: read-out: FMS Enzyme Assay. The procedure: (§1) In this assay, the oxidation of NADH (thus the decrease at A340 nm) was continuously monitored spectrophometrically. The reaction mixture (100 μl) contained FMS (purchased from Invitrogen or Millipore, 6 nM), polyE4Y (1 mg/ml), MgCl2 (10 mM), pyruvate kinase (4 units), lactate dehydrogenase (0.7 units), phosphoenol pyruvate (1 mM) and NADH (0.28 mM) and ATP (500 μM) in a 90 mM Tris buffer containing 0.2% octyl-glucoside and 1% DMSO, pH 7.5. The inhibition reaction was started by mixing serial diluted test compound with the above reaction mixture. The absorption at 340 nm was monitored continuously for 4 hours at 30° C. on a Polarstar Optima or Synergy 2 plate reader. The reaction rate was calculated using the 2 to 3 h time frame. Percent inhibition was obtained by comparison of reaction rate with that of a control (i.e. with no test compound). IC50 values were calculated from a series of percent inhibition values determined at a range of inhibitor concentrations using software routines as implemented in the GraphPad Prism software package.

Test [1] deals with T2, c-KIT kinase (Seq. ID no. 1) (Homo sapiens, UniProt P10721).
T2 construct: purchased ProQinase
Description: c-KIT kinase Assay (ADP production, pyruvate kinase/lactate dehydrogenase coupled). In kind it is biochemical. Particulars: read-out: cKIT Enzyme Assay. The method, then:
In this assay, the oxidation of NADH (thus the decrease at A340 nm) was continuously monitored spectrophometrically. […] The absorption at 340 nm was monitored continuously for 0.5 hours at 30° C. on Polarstar Optima plate reader (BMG). The reaction rate was calculated using the 0 to 0.5 h time frame. Percent inhibition was obtained by comparison of reaction rate with that of a control (i.e. with no test compound). IC50 values were calculated from a series of percent inhibition values determined at a range of inhibitor concentrations using software routines as implemented in the GraphPad Prism software package.

Another test addresses T3, PDGFRβ (Homo sapiens, UniProt P09619).
T3 construct: purchased Invitrogen
Description: PDGFRβ Kinase Assay. Particulars: read-out: PDGFRb Enzyme Assay. It is filed as biochemical.

Another test has as its system EBC-1 cells. The experiment in a line: EBC-1 Cell Proliferation Assay (resazurin). In kind it is cell-based. As to conditions: 67 h + 5 h resazurin, read-out: EBC1 Cell Proliferation. The procedure: EBC-1 cells (catalog #JCRB0820) were obtained from the Japan Health Science Research Resources Bank, Osaka, Japan. Briefly, cells were grown in DMEM supplemented with 10% characterized fetal bovine serum (Invitrogen, Carlsbad, Calif.) at 37 degrees Celsius, 5% CO2, 95% humidity. Cells were allowed to expand until reaching 70-95% confluency at which point they were subcultured or harvested for assay use.
EBC-1 Cell Proliferation Assay
A serial dilution of test compound was dispensed into a 96-well black clear bottom plate (Corning, Corning, N.Y.). For each cell line, five thousand cells were added per well in 200 μL complete growth medium. Plates were incubated for 67 hours at 37 degrees Celsius, 5% CO2, 95% humidity. […] Data was analyzed using Prism software (Graphpad, San Diego, Calif.) to calculate IC50 values.
A general note: Alamar Blue is a resazurin reagent that responds to reducing activity.

Test [2] concerns the target KDR kinase (Seq ID No. 3) (Homo sapiens, UniProt P35968, DEL940-989/E990V). Description: KDR Kinase Assay (assays K1, K2, K3). In kind it is biochemical. As to conditions: assay variant K1, K2 or K3 not stated; read-out: KDR Enzyme Assay.
In a further test the target is T4, PDGFRα kinase (Homo sapiens, UniProt P16234).
T4 construct: purchased Invitrogen
Description: PDGFRα Kinase Assay. In kind it is biochemical. As to conditions: read-out: PDGFRa Enzyme Assay. The procedure:
as §1, with “Activity of PDGFRα kinase was determined by following the production of ADP from the kinase reaction through coupling with the pyruvate kinase/lactate dehydrogenase system. In” for “In”, “PDGFRα (Invitrogen, 10” for “FMS (purchased from Invitrogen or Millipore, 6”

The target of test [3] is T5, c-MET kinase (Seq. ID no. 2) (Homo sapiens, UniProt P08581).
T5 construct: purchased Invitrogen PV3143
The experiment in a line: c-MET Kinase Assay (ADP production, pyruvate kinase/lactate dehydrogenase coupled). In kind it is biochemical. As to conditions: read-out: cMET Enzyme Assay. The method, then: In this assay, the oxidation of NADH (thus the decrease at A340 nm) was continuously monitored spectrophometrically. […] Test compounds were incubated with C-Met (Seq. ID no. 2) and other reaction reagents at 22° C. for 0.5 h before ATP (100 μM) was added to start the reaction. The absorption at 340 nm was monitored continuously for 2 hours at 30° C. on Polarstar Optima plate reader (BMG). The reaction rate was calculated using the 1.0 to 2.0 h time frame. Percent inhibition was obtained by comparison of reaction rate with that of a control (i.e. with no test compound). IC50 values were calculated from a series of percent inhibition values determined at a range of inhibitor concentrations using software routines as implemented in the GraphPad Prism software package.

Another test deals with T6, phospho-VEGF R2 (Homo sapiens, UniProt P35968).
T6 construct: host or cells: HUVEC
Description: HUVEC VEGF/KDR ELISA (phospho-VEGF R2 after VEGF stimulation). It is filed as cell-based. As to conditions: 4 h compound, 100 ng/mL VEGF 5 min, read-out: HUVEC pKDR. The procedure:
HUVEC (Human umbilical vein endothelial cell) cells were obtained from Lonza (Lonza, Walkersville, Md.). Briefly, cells were grown in EGM-2 (Lonza, Walkersville, Md.) at 37 degrees Celsius, 5% CO2, 95% humidity. Cells were allowed to expand until reaching 90-95% saturation at which point they were subcultured or harvested for assay use. For assay use, cells were harvested and grown in EGM-2 medium supplemented with 2% FBS (Lonza, Walkersville, Md.).
Twenty-five thousand cells were added per well in a 96-well black clear bottom plate (Corning, Corning, N.Y.). Cells were then incubated overnight at 37 degrees Celsius, 5% CO2, 95% humidity. A serial dilution of test compound was dispensed into another 96-well black clear bottom plate (Corning, Corning, N.Y.) containing EBM-2 supplemented with 2% FBS. Compound was added to plates containing cells and incubated for 4 hours at 37 degrees Celsius, 5% CO2, 95% humidity. Cells were stimulated with 100 ng/mL VEGF (R&D Systems, Minneapolis, Minn.) for 5 minutes, then lysed. Cell lysates were used to detect phospho-VEGF R2 using DuoSet IC HUVEC VEGF/KDR ELISA (R&D Systems, Minneapolis, Minn.). Data was analyzed using Prism software (Graphpad, San Diego, Calif.) to calculate IC50's.
In general terms: An ELISA detects its analyte on a solid surface through an enzyme-linked reagent.

Like-named read-outs stand apart in the source and are kept apart here. Where only a bound is given, the exact number is not on record here.

Drawing on patent publication US8486951B2 (Deciphera Pharmaceuticals, LLC, priority 2008, dated 2013), this text covers IC50 for ten compounds.

T5 sequence (P08581 with tags, fused parts or gaps): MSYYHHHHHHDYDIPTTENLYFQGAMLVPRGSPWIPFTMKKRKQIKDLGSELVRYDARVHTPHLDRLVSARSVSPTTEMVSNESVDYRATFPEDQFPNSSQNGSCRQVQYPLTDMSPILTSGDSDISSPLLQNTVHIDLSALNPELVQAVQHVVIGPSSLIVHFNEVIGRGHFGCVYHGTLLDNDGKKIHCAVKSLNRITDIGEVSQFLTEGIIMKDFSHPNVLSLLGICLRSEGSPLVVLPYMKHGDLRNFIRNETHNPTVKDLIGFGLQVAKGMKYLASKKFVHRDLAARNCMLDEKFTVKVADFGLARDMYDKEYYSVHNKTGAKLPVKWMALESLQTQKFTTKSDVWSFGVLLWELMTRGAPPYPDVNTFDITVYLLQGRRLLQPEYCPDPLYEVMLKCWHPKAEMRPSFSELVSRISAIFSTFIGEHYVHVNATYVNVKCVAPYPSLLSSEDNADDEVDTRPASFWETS
T2 sequence (P10721 with tags, fused parts or gaps): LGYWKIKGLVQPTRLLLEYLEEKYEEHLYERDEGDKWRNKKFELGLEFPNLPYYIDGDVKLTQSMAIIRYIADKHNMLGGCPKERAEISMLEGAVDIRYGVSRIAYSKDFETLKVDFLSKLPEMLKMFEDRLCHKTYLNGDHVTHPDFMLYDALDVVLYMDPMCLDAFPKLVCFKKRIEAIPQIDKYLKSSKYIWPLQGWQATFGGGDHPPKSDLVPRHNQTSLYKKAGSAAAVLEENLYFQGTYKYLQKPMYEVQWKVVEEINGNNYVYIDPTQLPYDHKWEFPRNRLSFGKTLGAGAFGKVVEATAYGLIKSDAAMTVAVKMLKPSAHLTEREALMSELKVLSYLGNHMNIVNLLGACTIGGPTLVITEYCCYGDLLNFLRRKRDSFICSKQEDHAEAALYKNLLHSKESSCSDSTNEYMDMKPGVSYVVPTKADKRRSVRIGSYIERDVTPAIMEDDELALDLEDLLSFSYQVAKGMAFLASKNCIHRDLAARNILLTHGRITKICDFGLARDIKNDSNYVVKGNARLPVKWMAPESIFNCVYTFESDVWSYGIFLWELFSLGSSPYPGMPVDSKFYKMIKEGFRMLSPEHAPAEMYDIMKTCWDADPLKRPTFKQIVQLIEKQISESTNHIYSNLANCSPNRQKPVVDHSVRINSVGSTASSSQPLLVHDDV
T1 sequence (P07333 20-972): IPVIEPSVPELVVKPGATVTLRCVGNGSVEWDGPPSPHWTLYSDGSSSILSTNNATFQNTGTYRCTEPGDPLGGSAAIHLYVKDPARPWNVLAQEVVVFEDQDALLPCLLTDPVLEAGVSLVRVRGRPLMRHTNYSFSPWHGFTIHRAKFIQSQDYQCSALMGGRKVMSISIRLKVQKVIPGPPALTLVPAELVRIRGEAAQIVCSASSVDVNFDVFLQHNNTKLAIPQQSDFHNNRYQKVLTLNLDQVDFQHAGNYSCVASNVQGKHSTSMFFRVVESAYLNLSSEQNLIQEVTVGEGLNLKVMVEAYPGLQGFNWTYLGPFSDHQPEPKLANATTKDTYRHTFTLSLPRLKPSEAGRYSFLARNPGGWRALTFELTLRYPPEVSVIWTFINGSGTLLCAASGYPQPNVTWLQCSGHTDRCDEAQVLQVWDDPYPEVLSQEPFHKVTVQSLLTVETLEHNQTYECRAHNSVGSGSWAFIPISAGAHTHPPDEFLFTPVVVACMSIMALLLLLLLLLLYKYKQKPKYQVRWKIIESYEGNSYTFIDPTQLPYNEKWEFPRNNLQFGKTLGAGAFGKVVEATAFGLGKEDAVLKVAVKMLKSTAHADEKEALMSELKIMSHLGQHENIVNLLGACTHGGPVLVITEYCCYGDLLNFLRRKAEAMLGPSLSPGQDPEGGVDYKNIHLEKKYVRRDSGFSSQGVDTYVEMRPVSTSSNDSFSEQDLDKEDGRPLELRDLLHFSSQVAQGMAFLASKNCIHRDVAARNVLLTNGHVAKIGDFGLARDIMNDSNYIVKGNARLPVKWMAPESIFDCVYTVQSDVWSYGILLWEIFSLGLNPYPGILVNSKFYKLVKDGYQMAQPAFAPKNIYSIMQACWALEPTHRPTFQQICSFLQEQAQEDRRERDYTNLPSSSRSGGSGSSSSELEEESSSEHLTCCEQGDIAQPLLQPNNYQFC
KDR kinase (Seq ID No. 3), sequence (P35968 with tags, fused parts or gaps DEL940-989/E990V): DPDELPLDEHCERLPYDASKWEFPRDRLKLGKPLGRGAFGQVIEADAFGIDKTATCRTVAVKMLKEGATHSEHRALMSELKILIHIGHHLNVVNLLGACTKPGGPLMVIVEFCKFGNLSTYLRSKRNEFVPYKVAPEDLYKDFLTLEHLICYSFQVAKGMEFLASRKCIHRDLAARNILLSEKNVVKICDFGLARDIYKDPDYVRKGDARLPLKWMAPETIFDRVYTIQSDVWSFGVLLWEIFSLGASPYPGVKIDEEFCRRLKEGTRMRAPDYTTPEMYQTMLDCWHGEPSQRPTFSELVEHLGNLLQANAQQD
T3 sequence (P09619 33-1106): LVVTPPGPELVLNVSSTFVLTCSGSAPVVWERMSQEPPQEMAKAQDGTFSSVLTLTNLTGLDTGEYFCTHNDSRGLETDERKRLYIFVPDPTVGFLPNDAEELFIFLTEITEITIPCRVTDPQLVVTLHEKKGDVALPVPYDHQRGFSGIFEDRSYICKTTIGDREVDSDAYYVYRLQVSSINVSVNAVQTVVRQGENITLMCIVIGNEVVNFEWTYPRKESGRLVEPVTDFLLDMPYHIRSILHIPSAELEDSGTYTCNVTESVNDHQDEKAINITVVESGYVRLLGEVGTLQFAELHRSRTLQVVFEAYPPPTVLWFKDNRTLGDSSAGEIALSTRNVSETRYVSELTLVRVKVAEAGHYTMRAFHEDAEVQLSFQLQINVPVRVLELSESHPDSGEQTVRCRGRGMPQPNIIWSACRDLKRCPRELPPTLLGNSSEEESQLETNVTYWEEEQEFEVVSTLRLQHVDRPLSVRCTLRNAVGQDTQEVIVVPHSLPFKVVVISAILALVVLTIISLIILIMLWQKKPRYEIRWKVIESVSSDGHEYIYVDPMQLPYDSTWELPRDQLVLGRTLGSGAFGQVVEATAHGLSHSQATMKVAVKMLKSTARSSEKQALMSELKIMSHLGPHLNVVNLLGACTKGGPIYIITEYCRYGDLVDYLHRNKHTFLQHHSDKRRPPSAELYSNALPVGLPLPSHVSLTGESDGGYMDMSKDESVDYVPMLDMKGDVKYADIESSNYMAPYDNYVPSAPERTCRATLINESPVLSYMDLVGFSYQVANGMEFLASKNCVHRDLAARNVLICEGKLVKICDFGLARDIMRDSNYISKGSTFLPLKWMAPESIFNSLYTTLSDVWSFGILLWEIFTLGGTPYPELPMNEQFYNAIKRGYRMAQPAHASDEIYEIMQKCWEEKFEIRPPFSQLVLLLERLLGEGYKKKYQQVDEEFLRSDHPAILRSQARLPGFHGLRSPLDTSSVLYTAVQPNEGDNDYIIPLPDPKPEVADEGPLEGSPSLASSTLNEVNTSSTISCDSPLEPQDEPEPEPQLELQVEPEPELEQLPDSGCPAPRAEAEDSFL
T4 sequence (P16234 24-1089): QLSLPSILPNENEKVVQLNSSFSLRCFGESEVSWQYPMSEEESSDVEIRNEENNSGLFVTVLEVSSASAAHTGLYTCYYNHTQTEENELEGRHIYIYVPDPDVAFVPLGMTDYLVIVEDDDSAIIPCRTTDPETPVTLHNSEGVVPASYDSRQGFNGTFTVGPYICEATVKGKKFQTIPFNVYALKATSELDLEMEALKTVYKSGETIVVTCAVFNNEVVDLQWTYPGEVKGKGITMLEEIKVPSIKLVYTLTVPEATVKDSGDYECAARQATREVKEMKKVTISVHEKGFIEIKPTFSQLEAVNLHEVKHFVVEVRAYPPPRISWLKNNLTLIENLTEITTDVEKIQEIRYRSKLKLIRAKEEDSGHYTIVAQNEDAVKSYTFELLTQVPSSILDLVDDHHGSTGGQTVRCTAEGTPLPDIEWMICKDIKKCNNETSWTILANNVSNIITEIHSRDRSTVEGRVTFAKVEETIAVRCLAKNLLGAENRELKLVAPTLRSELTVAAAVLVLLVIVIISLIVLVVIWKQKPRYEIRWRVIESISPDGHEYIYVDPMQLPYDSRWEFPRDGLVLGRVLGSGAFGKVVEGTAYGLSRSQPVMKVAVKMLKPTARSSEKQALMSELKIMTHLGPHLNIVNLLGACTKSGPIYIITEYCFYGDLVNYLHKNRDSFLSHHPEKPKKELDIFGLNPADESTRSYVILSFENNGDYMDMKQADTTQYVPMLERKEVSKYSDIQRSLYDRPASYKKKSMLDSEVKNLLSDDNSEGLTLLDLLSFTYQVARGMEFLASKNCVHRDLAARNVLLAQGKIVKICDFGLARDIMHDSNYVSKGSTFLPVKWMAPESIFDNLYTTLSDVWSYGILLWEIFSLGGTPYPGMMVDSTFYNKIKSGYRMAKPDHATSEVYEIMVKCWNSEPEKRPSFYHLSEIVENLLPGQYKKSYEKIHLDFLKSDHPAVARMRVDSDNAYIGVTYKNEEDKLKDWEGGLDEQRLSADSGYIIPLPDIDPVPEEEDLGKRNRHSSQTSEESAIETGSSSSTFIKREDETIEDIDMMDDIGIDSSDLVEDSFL

On to `Cn1cc(-c2cc(Oc3ccc(NC(=O)C4(C(=O)Nc5ccc(Cl)cc5)CC4)c(F)c3)ccn2)cn1` [Example 22, N-(4-chlorophenyl)-N′-(2-fluoro-4-(2-(1-methyl-1H-pyrazol-4-yl)pyridin-4-yloxy)phenyl)cyclopropane-1,1-dicarboxamide], for which the IC50 at FMS kinase was under 0.2 µM; in test [1] it was under 2 µM; at PDGFRβ it was under 2 µM; in the test on EBC-1 cells (Homo sapiens) it was under 2 µM; in test [2] it was under 2 µM; at PDGFRα kinase, under 2 µM. Besides, the IC50 in test [3] is under 2 µM.

Take “N-(2,5-difluoro-4-(2-(1-methyl-1H-pyrazol-4-yl)pyridin-4-yloxy)phenyl)-N-(4-fluorophenyl)cyclopropane-1,1-dicarboxamide [Example 40]”: the IC50 in test [1] was under 0.2 µM; on PDGFRβ it was under 10 µM; at phospho-VEGF R2 it was under 2 µM; in the test on EBC-1 cells, under 0.2 µM; in test [2], under 0.2 µM; at PDGFRα kinase, under 2 µM. In addition, the IC50 in test [3] was under 0.2 µM.

Take `Cn1cc(-c2cc(Oc3ccc(NC(=O)C4(C(=O)Nc5ccc(F)cc5)CC4)c(F)c3)ccn2)cn1` [Example 7, N-(2-fluoro-4-(2-(1-methyl-1H-pyrazol-4-yl)pyridin-4-yloxy)phenyl)-N′-(4-fluorophenyl)cyclopropane-1,1-dicarboxamide]: the IC50 at FMS kinase is under 0.2 µM; in test [1], under 10 µM; at PDGFRβ, under 10 µM; at phospho-VEGF R2, under 2 µM; in the test on EBC-1 cells (Homo sapiens), under 0.2 µM; in test [2], under 2 µM. On PDGFRα kinase, the IC50 was under 2 µM.

As to `Cc1nn(C)cc1-c1cc(Oc2cc(F)c(NC(=O)C3(C(=O)Nc4ccc(F)cc4)CC3)cc2F)ccn1` [Example 49, N-(4-(2-(1,3-Dimethyl-1H-pyrazol-4-yl)pyridin-4-yloxy)-2,5-difluorophenyl)-N′-(4-fluorophenyl)cyclopropane-1,1-dicarboxamide], the IC50 on FMS kinase is under 2 µM; in test [1], under 0.2 µM; at PDGFRβ, under 10 µM; in the test on EBC-1 cells (Homo sapiens), under 2 µM; in test [2], under 2 µM; at PDGFRα kinase, under 10 µM. Besides, the IC50 in test [3] is under 0.2 µM.

Regarding `C[C@H](NC(=O)C1(C(=O)Nc2ccc(Oc3ccnc(-c4cnn(C)c4)c3)c(F)c2)CC1)c1ccccc1` [Example 16, N-(3-fluoro-4-(2-(1-methyl-1H-pyrazol-4-yl)pyridin-4-yloxy)phenyl)-N′-((S)-1-phenylethyl)cyclopropane-1,1-dicarboxamide], the IC50 was under 0.2 µM at FMS kinase; under 0.2 µM in test [1]; under 10 µM on PDGFRβ; under 10 µM in the test on EBC-1 cells (Homo sapiens); under 10 µM in test [2]; under 2 µM on PDGFRα kinase.

`Cc1ccc(NC(=O)C2(C(=O)Nc3ccc(Oc4ccnc(-c5cnn(C)c5)c4)cc3F)CC2)cc1` [Example 23, N-(2-fluoro-4-(2-(1-methyl-1H-pyrazol-4-yl)pyridin-4-yloxy)phenyl)-N′-p-tolylcyclopropane-1,1-dicarboxamide]: the IC50 was under 2 µM on FMS kinase; under 10 µM in test [1]; under 10 µM at PDGFRβ; under 2 µM in the test on EBC-1 cells (Homo sapiens); under 10 µM in test [2]; under 10 µM at PDGFRα kinase. For the same compound, the IC50 in test [3] is under 2 µM.

Turning to `Cn1cc(-c2cc(Oc3ccc(NC(=O)C4(C(=O)Nc5cccc(C(F)(F)F)c5)CC4)cc3F)ccn2)cn1` [Example 6, N-(3-fluoro-4-(2-(1-methyl-1H-pyrazol-4-yl)pyridin-4-yloxy)phenyl)-N′-(3-(trifluoromethyl)phenyl)cyclopropane-1,1-dicarboxamide], the IC50 at FMS kinase was under 2 µM; in test [1] it was under 10 µM; on PDGFRβ, under 10 µM; in the test on EBC-1 cells (Homo sapiens), under 10 µM; in test [2], under 0.2 µM; on PDGFRα kinase, under 2 µM.

As for `O=C(Nc1ccc(F)cc1)C1(C(=O)Nc2ccc(Oc3ccnc(-c4cnn(CCO)c4)c3)c(F)c2)CC1` [Example 21, N-(3-fluoro-4-(2-(1-(2-hydroxyethyl)-1H-pyrazol-4-yl)pyridin-4-yloxy)phenyl)-N′-(4-fluorophenyl)cyclopropane-1,1-dicarboxamide], the IC50 is under 2 µM in test [1]; under 10 µM at PDGFRβ; under 2 µM in the test on EBC-1 cells (Homo sapiens); under 2 µM in test [2]; under 2 µM at PDGFRα kinase; under 2 µM in test [3].

On to `Cc1cc(NC(=O)C2(C(=O)Nc3ccc(F)cc3)CC2)c(F)cc1Oc1ccnc(-c2cnn(C)c2)c1` [Example 51, N-(2-fluoro-5-methyl-4-(2-(1-methyl-1H-pyrazol-4-yl)pyridin-4-yloxy)phenyl)-N′-(4-fluorophenyl)cyclopropane-1,1-dicarboxamide], for which the IC50 is under 0.2 µM on FMS kinase; under 0.2 µM in test [1]; under 2 µM on PDGFRβ; under 2 µM in the test on EBC-1 cells (Homo sapiens); under 2 µM in test [2]; under 2 µM at PDGFRα kinase. Also, in test [3], the IC50 is under 0.2 µM.

With `Cc1c(-c2cc(Oc3cc(F)c(NC(=O)C4(C(=O)Nc5ccc(F)cc5)CC4)cc3F)ccn2)cnn1C` [Example 50, N-(4-(2-(1,5-dimethyl-1H-pyrazol-4-yl)pyridin-4-yloxy)-2,5-difluorophenyl)-N′-(4-fluorophenyl)cyclopropane-1,1-dicarboxamide], the IC50 in test [1] was under 0.2 µM; at PDGFRβ it was under 10 µM; with EBC-1 cells (Homo sapiens) it was under 0.2 µM; in test [2] it was under 0.2 µM; at PDGFRα kinase, under 2 µM; in test [3] it was under 0.2 µM.
